Patent publication US20100267561A1, “HERBICIDAL PYRIDAZINONE DERIVATIVES” (priority 2007, published 2010)

Columns and labels:
Type in all cases: in vivo
[1] = tested on: Canada horseweed (Conyza canadensis); experiment: Test E pre-/postemergence plant response; conditions: Postemergence, scale 0 to 100
In short: (§1)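 Visual rating 0–100 vs untreated controls (0 = no effect, 100 = complete control) after 14–21 d greenhouse. Pre- and postemergence treatments; compound in non-phytotoxic solvent mix + surfactant. Post plants 2–18 cm, 1- to 4-leaf stage.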

[2] = tested on: common ragweed (Ambrosia elation); experiment: Test E pre-/postemergence plant response; conditions: scale 0 to 100
In short: as §1

[3] = tested on: field bindweed (Convolvulus arvensis); experiment: Test E pre-/postemergence plant response; conditions: scale 0 to 100
In short: as §1

[4] = tested on: spanishneedles (Bidens bipinnata); experiment: Test E pre-/postemergence plant response; conditions: scale 0 to 100
In short: as §1

[5] = tested on: wild oat (AVEFA, Avena fatua); experiment: Test F mixtures with safener cloquintocet-mexyl, pre-/postemergence plant response; conditions: applied alone
[6] = tested on: winter barley (HORVX, Hordeum vulgare); experiment: as above; conditions: applied alone
[7] = tested on: winter wheat (TRZAW, Triticum aestivum); experiment: as above; conditions: applied alone
[8] = tested on: tropical (T.) spiderwort (Commelina benghalensis); experiment: Test E pre-/postemergence plant response; conditions: scale 0 to 100
In short: as §1

CCc1cc(-c2ccc(C(F)(F)F)cc2)nn1-c1c(OC(=O)OC(C)C)cnn(C)c1=O [Compound 12]
Plant response rating, Horseweed ([1]; 4 g ai/ha): 0 | Plant response rating, Horseweed ([1]; 8 g ai/ha): 0 | Plant response rating, Horseweed ([1]; 31 g ai/ha): 0 | Plant response rating, Ragweed ([2]; 4 g ai/ha, Postemergence): 0 | Plant response rating, Ragweed ([2]; 31 g ai/ha, Preemergence): 0 | Plant response rating, Ragweed ([2]; Postemergence, 8 g ai/ha): 0 | Plant response rating, Ragweed ([2]; Postemergence, 31 g ai/ha): 0 | Plant response rating, Ragweed ([2]; Preemergence, 4 g ai/ha): 0 | Plant response rating, Field Bindweed ([3]; 4 g ai/ha, Postemergence): 0 | Plant response rating, Field Bindweed ([3]; 8 g ai/ha, Preemergence): 0 | Plant response rating, Field Bindweed ([3]; 31 g ai/ha, Preemergence): 0 | Plant response rating, Field Bindweed ([3]; Postemergence, 8 g ai/ha): 0 | Plant response rating, Field Bindweed ([3]; Postemergence, 31 g ai/ha): 0 | Plant response rating, Field Bindweed ([3]; Preemergence, 4 g ai/ha): 0 | Plant response rating, Spanishneedles ([4]; 4 g ai/ha, Postemergence): 0 | Plant response rating, Spanishneedles ([4]; 31 g ai/ha, Preemergence): 0 | Plant response rating, Spanishneedles ([4]; Postemergence, 8 g ai/ha): 0 | Plant response rating, Spanishneedles ([4]; Postemergence, 31 g ai/ha): 0 | AVEFA Obsd. (observed effect) plant response rating, scale 0 to 100 ([5]; postemergence, 4 g a.i./ha): 13 | AVEFA Obsd. (observed effect) plant response rating, scale 0 to 100 ([5]; postemergence, 8 g a.i./ha): 98 | AVEFA Obsd. (observed effect) plant response rating, scale 0 to 100 ([5]; postemergence, 16 g a.i./ha): 100 | AVEFA Obsd. (observed effect) plant response rating, scale 0 to 100 ([5]; preemergence, 4 g a.i./ha): 7 | AVEFA Obsd. (observed effect) plant response rating, scale 0 to 100 ([5]; preemergence, 8 g a.i./ha): 92 | AVEFA Obsd. (observed effect) plant response rating, scale 0 to 100 ([5]; preemergence, 16 g a.i./ha): 96 | HORVX Obsd. (observed effect) plant response rating, scale 0 to 100 ([6]; postemergence, 4 g a.i./ha): 0 | HORVX Obsd. (observed effect) plant response rating, scale 0 to 100 ([6]; postemergence, 8 g a.i./ha): 32 | HORVX Obsd. (observed effect) plant response rating, scale 0 to 100 ([6]; postemergence, 16 g a.i./ha): 65 | HORVX Obsd. (observed effect) plant response rating, scale 0 to 100 ([6]; preemergence, 4 g a.i./ha): 10 | HORVX Obsd. (observed effect) plant response rating, scale 0 to 100 ([6]; preemergence, 8 g a.i./ha): 73 | HORVX Obsd. (observed effect) plant response rating, scale 0 to 100 ([6]; preemergence, 16 g a.i./ha): 80 | TRZAW Obsd. (observed effect) plant response rating, scale 0 to 100 ([7]; postemergence, 4 g a.i./ha): 0 | TRZAW Obsd. (observed effect) plant response rating, scale 0 to 100 ([7]; postemergence, 8 g a.i./ha): 18 | TRZAW Obsd. (observed effect) plant response rating, scale 0 to 100 ([7]; postemergence, 16 g a.i./ha): 77 | TRZAW Obsd. (observed effect) plant response rating, scale 0 to 100 ([7]; preemergence, 4 g a.i./ha): 0 | TRZAW Obsd. (observed effect) plant response rating, scale 0 to 100 ([7]; preemergence, 8 g a.i./ha): 75 | TRZAW Obsd. (observed effect) plant response rating, scale 0 to 100 ([7]; preemergence, 16 g a.i./ha): 97

CCc1cc(-c2ccc(Cl)cc2)nn1-c1c(O)cnn(C)c1=O [Compound 21]
Plant response rating, Spiderwort, T. ([8]; 16 g ai/ha, Preemergence): 0 | Plant response rating, Spiderwort, T. ([8]; 31 g ai/ha, Preemergence): 0 | Plant response rating, Spiderwort, T. ([8]; 62 g ai/ha, Preemergence): 0 | Plant response rating, Spiderwort, T. ([8]; Postemergence, 8 g ai/ha): 0 | Plant response rating, Spiderwort, T. ([8]; Postemergence, 16 g ai/ha): 0 | Plant response rating, Spiderwort, T. ([8]; Postemergence, 31 g ai/ha): 0 | Plant response rating, Spiderwort, T. ([8]; Postemergence, 62 g ai/ha): 0

Cc1cc(-c2ccc(Cl)cc2)nn1-c1c(OS(=O)(=O)c2ccccc2)cnn(C)c1=O [Compound 35]
Plant response rating, Spiderwort, T. ([8]; 16 g ai/ha, Preemergence): 0 | Plant response rating, Spiderwort, T. ([8]; 31 g ai/ha, Preemergence): 0 | Plant response rating, Spiderwort, T. ([8]; 62 g ai/ha, Preemergence): 0 | Plant response rating, Spiderwort, T. ([8]; Postemergence, 8 g ai/ha): 0 | Plant response rating, Spiderwort, T. ([8]; Postemergence, 16 g ai/ha): 0 | Plant response rating, Spiderwort, T. ([8]; Postemergence, 31 g ai/ha): 0 | Plant response rating, Spiderwort, T. ([8]; Postemergence, 62 g ai/ha): 0
